Test results reported in patent US9481637B2, “Compounds for the treatment of seizures and other central nervous systems disorders and conditions” (Ketogen Inc., priority 2014, dated 2016).

What was measured:
Type in all cases: in vivo
[1] = system: 6 Hz-induced psychomotor seizures in CD-1 mice; assay: 6 Hz psychomotor seizure test; settings: for mice protected from psychomotor seizure / incidence of psychomotor seizures: 1 h pretreatment; for incidence of psychomotor seizures: vs Vehicle
Text: Male, experimentally naive CD-1 mice were used in these experiments. At a defined time following drug or vehicle pretreatment, all mice received an electrical stimulus (6 Hz, 0.2 ms pulse width, 3 s duration, 32 mA) via corneal electrodes moistened with saline (ECT unit 57800; Ugo Basile). Preliminary experiments established that these stimulus parameters elicited a psychomotor seizure, defined as the expression of at least one of the following behaviors: stun/immobility, forelimb clonus, straub tail, lateral head movement, in >95% of control animals. Protection was defined as complete absence of all the above behaviors within 20 s of stimulus delivery. The effective dose of compound necessary to protect against psychomotor seizures to 50% of controls (i.e. ED50) was determined by curve fitting program.
(§1) Male mice (body wt. 20-40 g) were used for all studies. Mice were used in one of the following 4 seizure tests: maximal electroshock seizure (MES) test, subcutaneous injection of pentylenetetrazol (scPTZ) test, seizures induced by 6 Hz stimulation (6 Hz), and corneal kindled seizures. These tests were selected because no single test detects all known anti-epileptic drugs (AED's), but all currently known AED's are detected as active (i.e. prevent seizures) in at least one of these tests. Subjects were tested in one of the 4 seizure tests following a defined time after treatment with either test drug or vehicle control. Following administration of test drug or vehicle by either the oral, subcutaneous or intraperitoneal route, the animals were tested according to one of the methods outlined below (1-4). Typically the pretreatment time was 60 minutes although in some cases this varied from 30 min to 4 h.
3. 6 Hz Psychomotor Seizure Test:
Male CD-1 mice received an electrical stimulus (6 Hz, 0.2 ms pulse width, 3 s duration, 32 mA) via corneal electrodes moistened with saline (ECT unit 57800; Ugo Basile). These stimulus parameters should elicit a psychomotor seizure, defined as the expression of at least one of the following behaviours: stun/immobility, forelimb clonus, straub tail, vibrissae tremor, lateral head movement, in >95% of control animals within 30 s of stimulus delivery. To establish drug efficacy, test drug or vehicle was administered at a defined timepoint prior to the 6 Hz test, to separate experimental groups. The effect of treatment on subsequent seizure was noted. Protection is defined as complete absence of all the above behaviours within 20 s of stimulus delivery. The experiment was terminated immediately once the endpoint was met.

[2] = system: MES-induced tonic seizures in CD-1 mice; assay: Maximal electroshock test (MES test)
Text: as §1
1. Maximal Electroshock Test (MES Test):
Male CD-1 mice received a maximal electroshock (45 mA, 0.2 s duration, 60 Hz) via corneal electrodes moistened with saline (shock stimulator type 221; Harvard apparatus). This stimulus intensity should elicit a full tonic seizure in >95% of control animals. Protection is defined as absence of a full tonic seizure within 15 s of stimulus delivery. To establish drug efficacy, test drug or vehicle was administered at a defined timepoint prior to the MES test, to separate experimental groups. The experiment was terminated immediately once the endpoint was met.

[3] = system: scPTZ-induced seizures in CD-1 mice; assay: s.c. pentylenetetrazol seizure test (scPTZ test)
Text: as §1
2. s.c. Pentylenetetrazol Seizure Test (PTZ Test):
Male CD-1 mice received a single subcutaneous injection of pentylenetetrazol (PTZ: 85 mg/kg). This dose of PTZ should elicit a clonic seizure in >95% of control animals. Following PTZ injection, the animals were immediately transferred to single observation cages and observed continuously for 30 min. To establish drug efficacy, test drug or vehicle was administered at a defined timepoint prior to the PTZ administration, to separate experimental groups. The effect of treatment on subsequent seizure was noted. Protection is defined as complete absence of a clonic seizure, including a forelimb clonus, over the 30 min observation period. In the event of a seizure, the onset latency from PTZ injection was recorded. The experiment was terminated immediately once the endpoint was met, or in the case of protection, at the completion of the 30 min test period.

[4] = system: corneal kindled seizures in CD-1 mice; assay: Mouse corneal kindling; settings: 75 and 300 mg/kg; IP and oral routes
Text: as §1
4. Mouse Corneal Kindling:
Male CD-1 mice (body wt. 20-40 g) were used for these studies. There are 3 phases to the procedure: (1) kindling development phase, (2) kindling stability/persistence phase, and (3) drug testing phase.
1. […]
Drug testing was conducted using a repeated measures design with mice receiving up to 4 doses of a test drug and control treatments in a counterbalanced sequence. […] For each stimulation, the kindling score was assessed according to the Racine (1972) rating scale. […]

[5] = 75-600 mg/kg IP and oral routes
[6] = 37.5-600 mg/kg IP and oral routes
[7] = 150, 300 and 600 mg/kg IP and 600 mg/kg oral

Row | Structure (SMILES) | incidence of psychomotor seizures [1, 5] | mice protected from psychomotor seizure ([1]; 300-600 mg/kg IP) | 6 Hz EC50 (mg/kg) ([1]; Dose route IP) | 6 Hz EC50 (mmol/kg) ([1]; Dose route IP) | 6 Hz EC50 (mg/kg) ([1]; Dose route PO) | 6 Hz EC50 (mmol/kg) ([1]; Dose route PO) | MES EC50 (mg/kg) ([2]; Dose route IP) | MES EC50 (mmol/kg) ([2]; Dose route IP) | MES EC50 (mg/kg) ([2]; Dose route PO) | MES EC50 (mmol/kg) ([2]; Dose route PO) | ScPTZ EC50 (mg/kg) ([3]; Dose route IP) | ScPTZ EC50 (mmol/kg) ([3]; Dose route IP) | ScPTZ EC50 (mg/kg) ([3]; Dose route PO) | ScPTZ EC50 (mmol/kg) ([3]; Dose route PO) | other results
1 | CCCCCCCCC(=O)NCC1(CC(=O)O)CCCCC1 [compound 4, 2-(1-(nonanamidomethyl)cyclohexyl)acetic acid] | – | – | – | – | – | – | – | – | – | – | – | – | – | – | mice protected from psychomotor seizure ([1]; 600 mg/kg IP): all mice; mice protected from psychomotor seizure ([1]; 600 mg/kg oral): No mice; incidence of psychomotor seizures ([1]; 150-600 mg/kg IP): dose-related decrease in the incidence of seizures
2 | CCCCCCCCCC(=O)NC[C@H](CC(=O)O)CC(C)C [compound 14, (S)-3-(decanamidomethyl)-5-methylhexanoic acid] | dose-related decrease in the incidence of seizures | all mice | – | – | – | – | – | – | – | – | – | – | – | – | –
3 | CCCCCCCC(=O)NC(=O)[C@H](CC)N1CCCC1=O [compound 20, (S)—N-(2-(2-oxopyrrolidin-1-yl)butanoyl)octanamide] | – | – | 90 mg/kg | 0.3 mmol/kg | 130 mg/kg | 0.44 mmol/kg | >600 mg/kg | >2.02 mmol/kg | >600 mg/kg | >2.02 mmol/kg | >600 mg/kg | >2.02 mmol/kg | >600 mg/kg | >2.02 mmol/kg | 6 Hz-induced seizures vs vehicle control (FIG. 8) ([1]; 75, 150, 300 or 600 mg/kg 1 hr pre-stimulation, 300 mg/kg at 2 and 4 hr, oral or IP): reduced seizures; MES-induced tonic seizures vs vehicle control (FIG. 7) ([2]; 600 mg/kg IP): reduced seizures; scPTZ-induced seizures vs vehicle control (FIG. 9) ([3]; 300 and 600 mg/kg IP): reduced seizures; corneal kindled seizures (Racine kindling score) vs vehicle control (FIG. 10) [4]: reduced seizures
4 | CCCCCCCCC(=O)NC(=O)[C@H](CC)N1CCCC1=O [compound 21, (S)—N-(2-(2-oxopyrrolidin-1-yl)butanoyl)nonanamide] | dose-related decrease in the incidence of seizures | all mice | – | – | – | – | – | – | – | – | – | – | – | – | –
5 | CCCCCCCCCC(=O)NC(=O)[C@H](CC)N1CCCC1=O [compound 22, (S)—N-(2-(2-oxopyrrolidin-1-yl)butanoyl)decanamide] | dose-related decrease in the incidence of seizures | – | – | – | – | – | – | – | – | – | – | – | – | – | mice protected from psychomotor seizure ([1]; 600 mg/kg IP): all mice
6 | CCCCC(CC)CCC(=O)NC(=O)[C@H](CC)N1CCCC1=O (stereo partly drawn) [compound 25, 4-ethyl-N—((S)-2-(2-oxopyrrolidin-1-yl)butanoyl)octanamide] | – | all mice | 46 mg/kg | 0.14 mmol/kg | 50 mg/kg | 0.15 mmol/kg | 397 mg/kg | 1.22 mmol/kg | >600 mg/kg | >1.85 mmol/kg | 310 mg/kg | 0.95 mmol/kg | 600 mg/kg | 1.85 mmol/kg | incidence of psychomotor seizures [1, 6]: dose-related decrease in the incidence of seizures; MES-induced tonic seizures vs vehicle control (FIG. 11) [2, 7]: reduced seizures; scPTZ-induced seizures (incidence, onset latency) vs vehicle control (FIGS. 12-13) [3, 7]: reduced seizures
7 | CCCCC1CCC(C(=O)NC(=O)[C@H](CC)N2CCCC2=O)CC1 (stereo partly drawn) [compound 26, (S)-4-butyl-N-(2-(2-oxopyrrolidin-1-yl)butanoyl)cyclohexane-1-carboxamide] | – | all mice | 80 mg/kg | 0.24 mmol/kg | 88 mg/kg | 0.26 mmol/kg | >600 mg/kg | >1.78 mmol/kg | >600 mg/kg | >1.78 mmol/kg | 230 mg/kg | 0.68 mmol/kg | 300 mg/kg | 0.89 mmol/kg | incidence of psychomotor seizures [1, 6]: dose-related decrease in the incidence of seizures; MES-induced tonic seizures vs vehicle control (FIG. 14) ([2]; 300 and 600 mg/kg IP and 600 mg/kg oral): reduced seizures; scPTZ-induced seizures (incidence, onset latency) vs vehicle control (FIGS. 15-16) [3, 7]: reduced seizures
